Reference: patent publication US20250332113A1, “ADHESIVE PARTICLES FOR ACTIVE DELIVERY” (THE TRUSTEES OF THE UNIVERSITY OF PENNSYLVANIA, priority 2022, published 2025)

Test: Release profile of fluorescent molecules from PEG-PLGA double-emulsion hairy microparticles
Format: physicochemical
Conditions: 0.1 M PBS buffer pH 7.4, 37° C., fluorescence in supernatant
Text: FIGS. 2A-2B. Simulated drug releasing profile from PEG-PLGA double emulsions-based hairy microparticles using two different fluorescent molecules. (FIG. 2A) Loaded Alexa Fluor® 647 (1025.2 g/mol) and (FIG. 2B) GFP (27 kDa) were released depending on the time and detected in supernatant.
To test drug encapsulating and releasing properties, we use two different sizes of fluorescent molecules (Alexa Fluor® 647, 1025.2 g/mol and GFP, 27 kDa). We load these molecules into most inner phase and generate double emulsions through two-step sequential emulsification. After fully drying of DCM, hairy microparticles are collected and washed 3 times by centrifugation at 3000 rcf for 1 min with deionized water. To determine the release profile, we place a sample in 0.1 M PBS buffer (pH=7.4, 5 ml total) at 37° C. and monitor the release of the fluorescent molecules. The fluorescent intensity in supernatant are measured using a BioTek plate reader. FIGS. 2A-2B show the release profile of both Alexa Fluor 647 and GFP. Based on the fluorescent intensity of end point, about 22-26% of Alexa Fluor 647 and 19-35% of GFP are released (compared to the amount injected into the emulsions) from microcapsules.

Alexa Fluor 647
released from microcapsules, compared to the amount injected into the emulsions, based on fluorescent intensity of end point: 22-26%
